# Experimental data reported in patent EP2338492A1, “Methods and compositions for the treatment of alzheimer” (Universidad del Pais Vasco, priority 2009, dated 2011).
# Where two headings read alike, the source gives them in different places.
# Key:
# neurons = assay: Measurement of mitochondrial Ca2+ (Rhod-2 AM); format: cell-based, Sprague-Dawley rat; conditions: for effect on Aβ-induced [Ca2+]mit rise: Aβ 5 µM together with NMDA receptor antagonist
# Source text: (§1) Primary neuron cultures were obtained from the cortical lobes of E18 Sprague-Dawley rat embryos according to previously described procedures (Gottlieb M. et al. 2006. Neurobiol. Dis. 23 374-386.) Cells were resuspended in B27 Neurobasal medium plus 10% FBS (Sigma; St Louis, MO, USA) and then seeded onto poly-1-ornithine-coated glass coverslips at 1x10^5 cells per coverslip (12 mm in diameter) and 48-well plates at 1.5 x 10^5 per well. One day later, the medium was replaced by serum-free-, B27-supplemented Neurobasal medium. The cultures were essentially free of astrocytes and microglia; they were maintained at 37°C and 5% CO2. Cultures were used 8-10 days after plating.
# Rhod-2 AM (Molecular Probes, Invitrogen, Barcelona, Spain) was used to measure mitochondrial Ca^2+ according to the previous procedure with modifications (G. Hajnóczky, L.D. et al. 1995. Cell 82 415-424) Rhod2-AM has a net positive charge, which facilitates its sequestration into mitochondria due to membrane potential-driven uptake. Cells were loaded with 2 µM rhod2-AM for 6 hours. The residual cytosolic fraction of the dye was eliminated when the cells were kept in culture for an additional 18h after loading, whereas the mitochondrial dye fluorescence was maintained. Fluorescence images of rhod-2 were acquired using 550 nm excitation and 590 nm emission. The fluorescence of rhod-2 was not calibrated in terms of [Ca^2+]mit since it is not a ratiometric dye.
# Cortical neurons [1] = assay: Measurement of intracellular reactive oxygen species (CM-H2DCFDA); format: cell-based, Sprague-Dawley rat; conditions: 2 hours
# Source text: as §1
# Neurons were exposed to Aβ oligomers alone or with GluR antagonists as described. Cells were loaded with CM-H2DCFDA at 30 µM to assay the ROS levels. Calcein-AM (1 µM; Molecular Probes, Invitrogen, Barcelona, Spain) was used to quantify the number of cells within the reading field. Fluorescence was measured using a Synergy-HT fluorimeter (Bio-Tek Instruments Incl, Beverly, MA, USA; excitation at 485 nm, emission at 527 nm). All experiments (n≥3) were performed at least in quadruplicate and plotted as means ± SEM.
# [2] = system: neurons from CA1 in organotypic slices; assay: Measurement of Ca2+ in organotypic slices (fluo-4); format: cell-based; conditions: for [Ca2+]i in CA1 neurons of organotypic slices: kainate 1 mM (positive control)
# Source text: (§2) Brain was removed and two hemispheres were separated in HBSS. Thalamus and midbrain was removed and each hemisphere sliced with a tissue chopper (McIlwan Tissue Chopper, Campden Instruments Ltd, Lafayette, IN, USA) in order to obtain coronal slices of 400 µm of thickness. Entorhinal cortex, in connection with hippocampus, were isolated under a dissection microscope, 2 slices plated on each Millicell CM culture inserts (Millipore Ibérica, Madrid, Spain) and maintained in Neurobasal medium supplemented with 0.5% B27, 25% horse serum, 25% HBSS and […] gentamycin at 37°C. Experiments were performed at 7-10 days in vitro.
# Ca^2+ levels in hippocampus were monitored by fluorescence microscopy using the Ca^2+ indicator fluo-4 (Molecular Probes, Invitrogen, Barcelona, Spain). Slices were incubated with fluo-4-AM (5 µM and 0.01 % of pluronic acid) for 45 min at 37 °C. Experiments were performed in a chamber continuously perfused with incubation buffer. Drugs were perfused by a micromanifold with a quartz/polyimide tube of 200 µm ID, attached to a micromanipulator in order to perfuse the drugs directly to the cells. The perfusion chamber was mounted on the stage of a Leica DMLFSA up-right microscope equipped with a 150 W xenon lamp Polychrome V (T.I.L.L. Photonics, Martinsried, Germany) and a HCX Apo 40 x water immersion objective (Leica). Cells were visualized with a CCD camera (EM CCD 9100; Hamamatsu Photonics Iberica, Barcelona, Spain).
# Cortical neurons [3] = assay: Analysis of mitochondrial membrane potential (JC-1); format: cell-based, Sprague-Dawley rat; conditions: Aβ 5 µM, 2 hours, in conjunction with GluR antagonist
# Source text: as §1
# Briefly, after drug treatment, cells were loaded with 3 µM JC-1 for 15 min at 37°C and were washed with HBSS without phenol red by two times to eliminate the excess of dye. In the cytosol the monomeric form of this dye fluoresces green (excitation at 485 nm, emission at 527 nm), whereas within the mitochondrial matrix highly concentrated JC-1 forms aggregates that fluoresce red (excitation at 485 nm, emission at 590 nm). Both JC-1 monomers and aggregates were detectable using a Synergy-HT fluorimeter (Bio-Tek Instruments Incl, Beverly, MA, USA) and the changes in mitochondrial potential were calculated as the red/green ratio in each condition. All experiments (n≥3) were performed at least in triplicate and plotted as meant SEM.
# [4] = system: entorhinal cortex-hippocampus organotypic cultures; assay: Cell death in organotypic cultures by propidium iodide uptake; format: cell-based; conditions: Aβ oligomers 100 nM, 4 days, co-incubation with MK801 10 µM or CNQX 30 µM
# Source text: as §2
# Antagonists were added to cultures 30 min before the Aβ. Cell death in organotypic cultures was evaluated by cellular uptake of propidium iodide (PI). Slices were stained by adding 10 µM PI into the culture for 2 h at 37°C and washed with PBS by two times for 10 min. Slices were fixed with 4% PFA in PBS for 40 min at room temperature. Afterwards, the slices were excited with 510―560 nm light and the emitted fluorescence acquired at 610 nm using a rhodamine filter on an inverted fluorescence microscope (Cell Observer Z1, Zeiss). PI fluorescence images were captured with a Plan NeoFluar 2.5 x objective (Zeiss), using an EM CCD camera (Hamamatsu, C9100-13), controlled by Axio Vision program (Zeiss). Images were analyzed with the ImageJ analysis program (NIH, MD, USA) and neuronal cell death was expressed as the percentage of the mean gray value of each treatment vs. control.
# Cortical neurons [5] = assay: Cell viability and toxicity assay (LDH release); format: cell-based, Sprague-Dawley rat
# Source text: as §1
# Antagonists and inhibitors were added to the cultures 30 min before the Aβ. Twenty four hours after drug application, cellular damage was estimated by measuring the level of lactate dehydrogenase released (LDH; Cytotox 96®, Promega, Madison, WI) from damaged cells into the culture media. Data were normalized to the activity of LDH released from vehicle-treated cells (100%) and calculated as a percentage of the control. Results were expressed as the means ± SEM of at least three independent experiments performed in triplicates.
# [6] = system: cultured cortical neurons; assay: Ca2+ imaging in the cytosol (fura-2 AM); format: cell-based, Sprague-Dawley rat; conditions: for effect on Aβ-induced increase in [Ca2+]i: Aβ 5 µM, coapplication, NMDA antagonists n=70, voltage-gated Ca2+ channel inhibitors n=66
# Source text: as §1
# [Ca^2+]¡ was determined according to the method described previously (G. Grynkiewicz, et al. 1985. J. Biol. Chem. 260:3440-3450). Neurons were loaded with fura-2 AM (5 µM; Molecular Probes, Invitrogen, Barcelona, Spain) in culture medium for 30 min at 37°C. Cells were washed in HBSS containing 20 mM HEPES, pH 7.4, 10 mM glucose, and 2 mM CaCl2 (incubation buffer) for 10 min at room temperature. Experiments were performed in a coverslip chamber continuously perfused with incubation buffer at 4 ml/min. The perfusion chamber was mounted on the stage of a inverted epifluorescence microscope (Zeiss Axiovert 35; Oberkochen, Germany) equipped with a 150 W xenon lamp Polychrome IV (T.I.L.L. Photonics, Martinsried, Germany) and a Plan Neofluar 40 x oil immersion objective (Zeiss). Cells were visualized with a high-resolution digital black/white CCD camera (ORCA C4742-80-12 AG; Hamamatsu Photonics Iberica). […] At the end of the assay, in situ calibration was performed with the successive addition of […] and 2 M Tris/50 mM EGTA, pH 8.5. Data were analyzed with Excel (Microsoft, Seattle, WA, USA) and Prism (GraphPad Software, San Diego, CA, USA) software.
# NMDA receptor = format: cell-based, Sprague-Dawley rat
# AMPA receptors = assay: Whole-cell patch-clamp recording of Aβ-induced currents with Mg2+, no glycine, with or without cyclothiazide; format: cell-based, Sprague-Dawley rat; conditions: Aβ 1 µM + CTZ 100 µM; CNQX 30 µM; n=6
# Source text: as §1
# Whole-cell recordings were performed at room temperature using the EPC-7 patch-clamp amplifier (HEKA Elektronik, Lambrecht, Germany). Currents were recorded at a holding membrane potential of -70 mV. Extracellular bath solution with a pH of 7.3 contained the following (in mM): 140 NaCl, 5 KCl, 2.5 CaCl2, 1 MgCl2, 10 HEPES and 10 mM glucose. Patch-clamp pipettes (3-5 MΩ) were filled with internal solution at a pH of 7.3 containing the following (in mM): 140 K-gluconate, 1 CaCl2, 2 MgCl2, 10 HEPES, 10 EGTA, 2 Mg-ATP, 0.2 Na-GTP.
# We then measured the effects of antagonists of NMDA or AMPA receptor on [Ca^2+]¡ in neurons exposed to Aβ plus CTZ (5 µM and 100 µM, respectively; Fig 2B).
# [7] = Aβ 5 µM, in conjunction with GluR antagonist
# [8] = Aβ 5 µM, 24 h, AP5 100 µM, MK801 50 µM, memantine 50 µM, CNQX 30 µM, ZVAD-F 50 µM, DEVD 100 µM, DPQ 30 µM, added 30 min before Aβ
molecule,measurement,setting,value
N#CC(C#N)=NNc1ccc(OC(F)(F)F)cc1 [FCCP],rhod-2 fluorescence (mitochondrial Ca2+),"neurons; FCCP 25 µM, internal control",rapid and transitory reduction of rhod-2 fluorescence
C[C@]12N[C@H](Cc3ccccc31)c1ccccc12 [MK801],"ROS levels with respect to control (100%, non-treated cells)",Cortical neurons [1]; [7],104 ± 3.4%
same,effect on Aβ-induced [Ca2+]i response in organotypic slices,[2],greatly reduced
same,"mitochondrial potential with respect to control (100%, non-treated cells)",Cortical neurons [3],85 ± 3%
same,effect on Aβ-induced [Ca2+]mit rise,neurons,reduced
same,"PI uptake, fold as compared to control slices treated with antagonist alone",[4]; entorhinal cortex,1.2 ± 0.4 fold
same,"PI uptake, fold as compared to control slices treated with antagonist alone",[4]; hippocampus,0.9 ± 0.2 fold
same,effect on Aβ toxicity (Aβ-induced cell death),Cortical neurons [5],greatly attenuated
same,effect on Aβ-induced increase in [Ca2+]i,[6],nearly abolished
O=C1NCCc2c(OCCCCN3CCCCC3)cccc21 [DPQ],effect on Aβ toxicity (Aβ-induced cell death),Cortical neurons [5]; [8],reduced
C=C(C)[C@H]1CN[C@H](C(=O)O)[C@H]1CC(=O)O [Kainate],[Ca2+]i in CA1 neurons of organotypic slices,[2]; Aβ 20 µM in the pipette,increases
"N[C@H](CCCP(=O)(O)O)C(=O)O [AP5, D-(-)-2-Amino-5-phosphonopentanoic acid]",effect on Aβ oligomer-induced inward current,NMDA receptor,reduced the peak of the currents
same,"ROS levels with respect to control (100%, non-treated cells)",Cortical neurons [1]; [7],102 ± 11%
same,"mitochondrial potential with respect to control (100%, non-treated cells)",Cortical neurons [3],90 ± 2%
same,effect on Aβ-induced [Ca2+]mit rise,neurons,reduced
same,effect on Aβ toxicity (Aβ-induced cell death),Cortical neurons [5]; [8],greatly attenuated
same,"[Ca2+]i increase, % of control","[6]; Aβ 5 µM plus CTZ 100 µM, CNQX 30 µM (n=17), AP5 100 µM (n=17), both (n=18)",45 ± 2 % of control
same,effect on Aβ-induced increase in [Ca2+]i,[6],nearly abolished
Aβ oligomers: soluble Aβ1-42 oligomers prepared from Aβ1-42 (ABX) in Hams F-12 at 4°C for 24 h,"ROS levels with respect to control (100%, non-treated cells)",Cortical neurons [1]; Aβ 5 µM alone,124 ± 7.8%
same,[Ca2+]i in CA1 neurons of organotypic slices,[2]; Aβ 20 µM in the pipette,increased
same,[Ca2+]mit levels with respect to the control assay (incubation buffer),neurons; Aβ 5 µM,increased
"6-Cyano-7-nitroquinoxaline-2,3-dione [CNQX]","Aβ-produced inward current, Aβ + CNQX vs 100 % Aβ alone",NMDA receptor,98.3 ± 6.8%
same,effect on current activated by Aβ with CTZ,AMPA receptors,blocked
same,"ROS levels with respect to control (100%, non-treated cells)",Cortical neurons [1]; [7],106 ± 6.3%
same,effect on Aβ-induced [Ca2+]i response in organotypic slices,"[2]; Aβ 20 µM in the pipette, MK801 50 µM (n=9), CNQX 30 µM (n=43), both (n=50)",greatly reduced
same,"mitochondrial potential with respect to control (100%, non-treated cells)",Cortical neurons [3],86 ± 3%
same,"PI uptake, fold as compared to control slices treated with antagonist alone",[4]; entorhinal cortex,0.73 ± .01 fold
same,"PI uptake, fold as compared to control slices treated with antagonist alone",[4]; hippocampus,1.3 ± 0.4 fold
same,effect on Aβ toxicity (Aβ-induced cell death),Cortical neurons [5],greatly attenuated
same,"[Ca2+]i increase, % of control",[6],50 ± 4 % of control
